We go through ten compounds from paper PMC3584441 (The Journal of membrane biology, 2013).

Where no end group is shown, it is not given here.

This series concerns sheep erythrocytes. Nature of the series: Hemolysis assay: decrease in absorbance. In kind it is cell-based. The conditions noted are these: grouped as hemolytic (yes) or non-hemolytic (no).
For `CC[C@H](C)[C@H](NC(=O)[C@H](Cc1c[nH]c2ccccc12)NC(=O)[C@H](CCCCN)NC(=O)[C@@H](NC(=O)[C@H](CC(C)C)NC(=O)[C@H](CCCCN)NC(=O)CNC(=O)[C@@H](NC(=O)[C@@H](NC(=O)[C@H](CO)NC(=O)[C@@H](NC(=O)[C@@H](NC(=O)[C@H](CCCCN)NC(=O)[C@H](CCC(N)=O)NC(=O)[C@H](C)NC(=O)[C@H](CCSC)NC=O)[C@@H](C)CC)[C@@H](C)CC)[C@@H](C)O)[C@@H](C)CC)C(C)C)C(=O)N[C@H](C(=O)N[C@@H](CCCCN)C(=O)N[C@H](C(=O)N[C@H](C(=O)N[C@@H](CC(N)=O)C(=O)N[C@@H](CCCCN)C(=O)N[C@@H](Cc1ccccc1)C(=O)N[C@H](C(=O)N[C@@H](CCCCN)C(=O)N[C@@H](CCCCN)C(=O)O)[C@@H](C)O)C(C)C)[C@@H](C)O)[C@@H](C)CC` (racemic) [DL-1], the Hemolytic entry is on record as “yes”.

For `CC(C)C[C@H](NC=O)C(=O)N[C@@H](C)C(=O)N[C@@H](C)C(=O)N[C@@H](CC(=O)O)C(=O)N[C@@H](CC(C)C)C(=O)N[C@@H](CC(C)C)C(=O)N[C@@H](C)C(=O)N[C@@H](C)C(=O)N[C@@H](CC(C)C)C(=O)NCC(=O)N[C@@H](CC(=O)O)C(=O)N[C@@H](CC(C)C)C(=O)N[C@@H](C)C(=O)N[C@@H](CCCCN)C(=O)N[C@@H](Cc1c[nH]c2ccccc12)C(=O)N[C@@H](CC(C)C)C(=O)N[C@@H](CC(C)C)C(=O)N[C@@H](CC(=O)O)C(=O)N[C@@H](C)C(=O)N[C@@H](CC(C)C)C(=O)N[C@@H](C)C(=O)N[C@@H](CCCCN)C(=O)N[C@@H](C)C(=O)N[C@@H](C)C(=O)N[C@@H](CCCCN)C(=O)N[C@@H](CCCCN)C(=O)O` (racemic) [DL-2a], the Hemolytic result is given as “yes”.

Take `CC[C@H](C)[C@H](NC(=O)[C@H](CCCCN)NC(=O)[C@H](CCCCN)NC(=O)[C@H](C)NC(=O)[C@H](CC(C)C)NC(=O)[C@H](C)NC(=O)[C@H](C)NC(=O)[C@H](CC(C)C)NC(=O)[C@H](C)NC(=O)[C@H](CCCCN)NC(=O)[C@H](CC(C)C)NC(=O)[C@H](CC(N)=O)NC(=O)[C@@H](NC(=O)[C@H](CCCCN)NC(=O)CNC(=O)[C@H](CC(C)C)NC(=O)[C@H](CC(C)C)NC(=O)[C@H](Cc1c[nH]c2ccccc12)NC(=O)CNC(=O)[C@H](C)N)[C@@H](C)CC)C(=O)N[C@@H](CC(C)C)C(N)=O` [TP10W]: the Hemolytic entry is “yes”.

On to `CC[C@H](C)[C@H](NC(=O)[C@H](Cc1c[nH]c2ccccc12)NC(=O)[C@H](CCCCN)NC(=O)[C@@H](NC(=O)[C@H](CC(C)C)NC(=O)[C@H](CC(=O)O)NC(=O)CNC(=O)[C@@H](NC(=O)[C@@H](NC(=O)[C@H](CO)NC(=O)[C@@H](NC(=O)[C@@H](NC(=O)[C@H](CC(=O)O)NC(=O)[C@H](CCC(N)=O)NC(=O)[C@H](C)NC(=O)[C@H](CCSC)NC=O)[C@@H](C)CC)[C@@H](C)CC)[C@@H](C)O)[C@@H](C)CC)C(C)C)C(=O)N[C@H](C(=O)N[C@@H](CC(=O)O)C(=O)N[C@H](C(=O)N[C@H](C(=O)N[C@@H](CC(N)=O)C(=O)N[C@@H](CCCCN)C(=O)N[C@@H](Cc1ccccc1)C(=O)N[C@H](C(=O)N[C@@H](CCCCN)C(=O)N[C@@H](CCCCN)C(=O)O)[C@@H](C)O)C(C)C)[C@@H](C)O)[C@@H](C)CC` [δ-Lysin, reference compound], for which the Hemolytic entry was “yes”.

Turning to AGWLLGDINLDALAALAKKIL-NH2 [TPW-1], the Hemolytic entry is recorded as “yes”.

AGWLLGDINLKALAALAKKIL-NH2 [TPW-3]: the Hemolytic result is reported as “yes”.

Turning to AGWLLGKLALKALAALAKKLL-NH2 [TPW-2], the Hemolytic result was “yes”.

As for GILKFLESAKKWLEAFLAEIMNS [MG-1], the Hemolytic entry is on record as “yes”.

On to GLGKLLHAAKKLGKAWLGELLAA [MG-2], for which the Hemolytic result is “yes”.

Turning to “KWKLLKKLEKAGAALKEGLLKAGPALALLGAAAALAK-NH2 [CE-2]”, the Hemolytic result is given as “yes”.
